Reference: patent US20210346359A1, “Use of CFTR Modulators For Treating Cerebrovascular Conditions” (Qanatpharma AG, priority 2018, published 2021)
Entries after “also recorded” stand apart in the source; their conditions may differ.

Assays:
[1] = tested on: mice with subarachnoid hemorrhage; assay: Modified Garcia neurological score in subarachnoid hemorrhage mice; assay type: in vivo, mouse; conditions: SAH mice, 2 days post-SAH, maximum score 18, 3 mg/kg daily for 2 days
Method: Neurological Function Assessment: Neurological function was assessed utilizing the modified Garcia score, as previously described (6). The neurological assessment consists of 6 domains: spontaneous activity, spontaneous movement of all 4 limbs, forepaw outstretching, climbing, body proprioception and response to vibrissae touch. Two blinded observers conducted the neurological assessment 2 days after SAH. The maximum score is 18, indicative of normal neurological function.

[2] = biological target: wild-type CFTR (Homo sapiens, UniProt P13569); conditions: demonstrated earlier (15); cited from earlier work
[3] = biological target: CFTR (Mus musculus, UniProt P26361); assay: FACS-based FITC-S1P uptake in vascular smooth muscle cells; assay type: cell-based; parameters: mesenteric artery segments were isolated, cut into small pieces and digested with trypsin, collagenase and elastase; endogenous in cells; host or cells: primary mesenteric artery vascular smooth muscle cells; conditions: primary vascular smooth muscle cells; 48 h TNF 10 ng/ml + C18 6 μmol/L for last 24 h
Method: Procedures for isolating and culturing mesenteric artery smooth muscle cells were carried out as described in (10). Briefly, mesenteric artery segments were isolated, cut into small pieces and digested with trypsin, collagenase and elastase. The resulting cell suspension was washed several times in phosphate-buffered saline and plated in Dulbecco's Modified Eagle Medium (DMEM) culture media containing 10% fetal bovine serum and 1% penicillin-streptomycin. Cell cultures were maintained at 37° C. with 5% CO2 and split at […] cells seeding density. Baby hamster kidney fibroblast cells stably expressing wild-type human CFTR (10,17) were maintained in DMEM/F12 media containing 5% fetal bovine serum and 250 μmol/L methotrexate (which activates the CFTR transgene promoter). Cells were maintained under standard cell culture conditions at 37° C. with 5% CO2.
As previously described (10), cell monolayers (treated or untreated) were incubated with 1 μmol/L S1P-FITC for 60 minutes; the cells were then detached by trypsinization, washed twice with ice-cold PBS, filtered through a 35 μm cell strainer and analyzed using the Becton-Dickinson FACS Canto operated by FACS DIVA version 6.1 software. […] The analysis procedure determined the mean fluorescence intensity (arbitrary units) of each cell population, which is a measure of uptake.

[4] = tested on: posterior cerebral arteries; assay: Phenylephrine responses of isolated posterior cerebral arteries; assay type: in vivo, mouse
Method: Isolation and functional assessment of resistance arteries: Mouse olfactory (a first branch of the anterior cerebral artery) and PCAs were carefully dissected, cannulated onto micropipettes, stretched to their in vivo lengths and pressurized to 45 mmHg, as previously described (3,6); mouse skeletal muscle resistance arteries were dissected from the cremaster muscle, cannulated and pressurized to 60 mmHg. All functional experiments were conducted in 3-morpholinopropanesulfonic acid (MOPS) buffered saline at 37° C. with no perfusion. Vasomotor responses to phenylephrine (5 μmol/L for posterior cerebral arteries, 10 μmol/L for cremaster skeletal muscle arteries) provided an assessment of vessel viability at the beginning and end of each experiment. Arteries failing to show ≥25% constriction to phenylephrine were excluded.
Myogenic tone was calculated as the percent constriction in relation to the maximal diameter at each respective transmural pressure: tone (% of diamax)=[(diamax−diaactive)/diamax]×100, where diaactive is the vessel diameter in MOPS containing Ca^2+ and diamax is the diameter in Ca^2+-free MOPS. Analyses of vasomotor responses to phenylephrine used the same calculation, only in this case, diaactive represents the vessel diameter at steady state following application of the given agent and diamax represents the maximal diameter measured under Ca^2+-free conditions.

Chain of CFTR (P26361 whole entry): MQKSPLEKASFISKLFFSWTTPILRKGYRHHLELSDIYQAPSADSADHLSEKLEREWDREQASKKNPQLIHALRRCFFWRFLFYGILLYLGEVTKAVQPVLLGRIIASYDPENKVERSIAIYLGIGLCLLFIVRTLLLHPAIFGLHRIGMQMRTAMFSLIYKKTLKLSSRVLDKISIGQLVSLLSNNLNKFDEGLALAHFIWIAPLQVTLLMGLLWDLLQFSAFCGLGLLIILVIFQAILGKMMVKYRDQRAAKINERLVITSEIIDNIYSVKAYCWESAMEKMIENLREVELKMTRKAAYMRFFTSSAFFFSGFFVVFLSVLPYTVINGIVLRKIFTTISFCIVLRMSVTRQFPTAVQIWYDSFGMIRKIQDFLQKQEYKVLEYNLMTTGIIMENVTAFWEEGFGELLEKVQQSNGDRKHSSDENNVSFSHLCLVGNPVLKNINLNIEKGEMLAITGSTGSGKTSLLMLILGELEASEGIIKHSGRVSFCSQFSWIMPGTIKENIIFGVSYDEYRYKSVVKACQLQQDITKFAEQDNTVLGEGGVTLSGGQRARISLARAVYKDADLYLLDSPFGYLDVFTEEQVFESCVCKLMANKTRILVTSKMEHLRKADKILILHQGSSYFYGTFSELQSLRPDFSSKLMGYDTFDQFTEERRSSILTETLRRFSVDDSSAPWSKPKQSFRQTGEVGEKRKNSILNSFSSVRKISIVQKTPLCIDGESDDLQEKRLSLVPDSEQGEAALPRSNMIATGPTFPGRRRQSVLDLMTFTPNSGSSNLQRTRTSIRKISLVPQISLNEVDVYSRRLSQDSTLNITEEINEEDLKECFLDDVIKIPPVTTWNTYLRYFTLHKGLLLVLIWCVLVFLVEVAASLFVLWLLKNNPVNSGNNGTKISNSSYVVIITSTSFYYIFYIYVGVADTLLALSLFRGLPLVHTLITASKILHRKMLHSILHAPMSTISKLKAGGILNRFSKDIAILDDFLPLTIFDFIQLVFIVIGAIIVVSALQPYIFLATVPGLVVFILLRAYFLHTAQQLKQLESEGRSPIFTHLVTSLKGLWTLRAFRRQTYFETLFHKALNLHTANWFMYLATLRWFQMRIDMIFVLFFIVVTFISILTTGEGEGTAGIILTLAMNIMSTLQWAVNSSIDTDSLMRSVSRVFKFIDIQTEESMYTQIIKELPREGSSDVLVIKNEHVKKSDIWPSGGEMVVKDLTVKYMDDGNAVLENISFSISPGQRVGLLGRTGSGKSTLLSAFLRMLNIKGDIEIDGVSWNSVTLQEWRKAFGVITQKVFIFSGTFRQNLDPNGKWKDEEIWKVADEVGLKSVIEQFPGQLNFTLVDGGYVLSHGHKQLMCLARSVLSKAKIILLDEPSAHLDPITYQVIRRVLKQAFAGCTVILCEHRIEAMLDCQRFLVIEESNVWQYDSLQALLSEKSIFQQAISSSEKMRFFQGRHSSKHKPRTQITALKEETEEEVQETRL
Chain of wild-type CFTR (P13569 whole entry, species assumed): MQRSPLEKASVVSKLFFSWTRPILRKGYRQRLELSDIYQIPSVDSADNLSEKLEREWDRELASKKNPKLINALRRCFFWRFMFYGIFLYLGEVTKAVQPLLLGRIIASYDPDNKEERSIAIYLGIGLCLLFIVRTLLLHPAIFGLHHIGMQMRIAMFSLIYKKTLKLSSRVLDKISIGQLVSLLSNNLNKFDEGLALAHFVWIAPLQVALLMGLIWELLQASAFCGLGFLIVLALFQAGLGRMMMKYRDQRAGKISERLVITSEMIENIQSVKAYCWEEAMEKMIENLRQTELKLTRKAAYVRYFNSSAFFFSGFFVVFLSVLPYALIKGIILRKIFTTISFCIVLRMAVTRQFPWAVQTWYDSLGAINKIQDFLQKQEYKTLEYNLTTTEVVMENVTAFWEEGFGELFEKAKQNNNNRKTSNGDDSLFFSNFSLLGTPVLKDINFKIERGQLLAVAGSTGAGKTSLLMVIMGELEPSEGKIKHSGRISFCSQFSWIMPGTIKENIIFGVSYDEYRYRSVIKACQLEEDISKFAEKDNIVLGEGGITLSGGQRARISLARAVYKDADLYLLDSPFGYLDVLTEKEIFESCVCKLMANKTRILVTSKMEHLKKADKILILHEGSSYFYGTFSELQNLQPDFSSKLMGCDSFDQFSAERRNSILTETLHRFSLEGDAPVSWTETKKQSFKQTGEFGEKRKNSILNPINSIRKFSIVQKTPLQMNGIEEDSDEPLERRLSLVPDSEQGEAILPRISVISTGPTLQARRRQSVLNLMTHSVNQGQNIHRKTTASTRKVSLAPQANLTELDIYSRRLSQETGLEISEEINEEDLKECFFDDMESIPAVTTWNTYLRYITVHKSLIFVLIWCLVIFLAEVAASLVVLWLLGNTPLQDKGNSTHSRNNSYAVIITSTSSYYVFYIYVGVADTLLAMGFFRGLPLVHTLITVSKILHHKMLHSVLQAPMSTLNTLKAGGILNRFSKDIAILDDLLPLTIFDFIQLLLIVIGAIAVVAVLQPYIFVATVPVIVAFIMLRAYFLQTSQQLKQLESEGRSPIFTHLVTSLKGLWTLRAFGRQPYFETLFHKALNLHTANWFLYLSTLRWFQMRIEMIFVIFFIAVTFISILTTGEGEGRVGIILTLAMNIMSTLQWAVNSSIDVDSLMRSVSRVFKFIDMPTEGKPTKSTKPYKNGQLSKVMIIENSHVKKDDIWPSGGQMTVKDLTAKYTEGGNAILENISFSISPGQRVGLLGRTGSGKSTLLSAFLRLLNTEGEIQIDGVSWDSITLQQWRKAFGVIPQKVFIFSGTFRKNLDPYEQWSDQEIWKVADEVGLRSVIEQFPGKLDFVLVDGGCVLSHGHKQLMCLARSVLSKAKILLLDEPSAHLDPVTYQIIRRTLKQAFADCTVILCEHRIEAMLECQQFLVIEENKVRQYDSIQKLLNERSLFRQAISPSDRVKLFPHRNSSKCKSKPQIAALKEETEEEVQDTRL

Compound: O=C(Nc1ncc(C(c2ccccc2Cl)N2CCC(O)C2)s1)C1(c2ccc3c(c2)OCO3)CC1 (centres unmarked) [C18, 1-(benzo[d][1,3]dioxol-5-yl)-N-(5-((2-chlorophenyl)(3-hydroxypyrrolidin-1-yl)methyl)thiazol-2-yl)cyclopropanecarboxamide]
- Modified Garcia score (neurological function) [1]: comparable to sham-operated mice; also recorded: restores the neurological score to the sham level
- interaction with wild-type CFTR / CFTR expression at the plasma membrane [2]: directly interacts with and stabilizes wild-type CFTR
- FITC-labeled sphingosine-1-phosphate uptake after TNF [3]: fully restores; also recorded: normalization
- phenylephrine dose-response relationship ([4]; posterior cerebral arteries from CFTR knockout mice, 3 mg/kg i.p. daily for 2 days, 3 mg/kg): not affected; also recorded: does not alter
- phenylephrine dose-response relationship normalized to basal tone, HF vs HF+C18 ([4]; posterior cerebral arteries from HF mice, 3 mg/kg i.p. daily for 2 days, 3 mg/kg): curves overlap; also recorded: not significantly different
- phenylephrine dose-response relationship (tone), HF vs HF+C18 ([4]; posterior cerebral arteries from HF mice, 3 mg/kg i.p. daily for 2 days, not normalized, 3 mg/kg): significant difference
- phenylephrine responses ([4]; posterior cerebral arteries from sham-operated mice, 3 mg/kg i.p. daily for 2 days, 3 mg/kg): does not affect; also recorded: does not alter
- log EC50 of phenylephrine response ([4]; posterior cerebral arteries, HF+C18 group, log scale): −5.94±0.21
